Each compound was assayed against T1, Zcchc11 enzyme (Homo sapiens, UniProt Q5TAX3) (assay: TUTase assay (Zcchc11 assay, Lin28a-dependent polyuridylation of pre-let-7)). Details: Lin28a-dependent Zcchc11 (Z11) TUTase assay; read-out: Potency Lin28a-dep Z11 IC50.
T1 construct: made in house; host or cells: HEK293 cells (Zcchc11); E. coli Rosetta II (LIN28A)
T1 sequence (Q5TAX3 212-1420): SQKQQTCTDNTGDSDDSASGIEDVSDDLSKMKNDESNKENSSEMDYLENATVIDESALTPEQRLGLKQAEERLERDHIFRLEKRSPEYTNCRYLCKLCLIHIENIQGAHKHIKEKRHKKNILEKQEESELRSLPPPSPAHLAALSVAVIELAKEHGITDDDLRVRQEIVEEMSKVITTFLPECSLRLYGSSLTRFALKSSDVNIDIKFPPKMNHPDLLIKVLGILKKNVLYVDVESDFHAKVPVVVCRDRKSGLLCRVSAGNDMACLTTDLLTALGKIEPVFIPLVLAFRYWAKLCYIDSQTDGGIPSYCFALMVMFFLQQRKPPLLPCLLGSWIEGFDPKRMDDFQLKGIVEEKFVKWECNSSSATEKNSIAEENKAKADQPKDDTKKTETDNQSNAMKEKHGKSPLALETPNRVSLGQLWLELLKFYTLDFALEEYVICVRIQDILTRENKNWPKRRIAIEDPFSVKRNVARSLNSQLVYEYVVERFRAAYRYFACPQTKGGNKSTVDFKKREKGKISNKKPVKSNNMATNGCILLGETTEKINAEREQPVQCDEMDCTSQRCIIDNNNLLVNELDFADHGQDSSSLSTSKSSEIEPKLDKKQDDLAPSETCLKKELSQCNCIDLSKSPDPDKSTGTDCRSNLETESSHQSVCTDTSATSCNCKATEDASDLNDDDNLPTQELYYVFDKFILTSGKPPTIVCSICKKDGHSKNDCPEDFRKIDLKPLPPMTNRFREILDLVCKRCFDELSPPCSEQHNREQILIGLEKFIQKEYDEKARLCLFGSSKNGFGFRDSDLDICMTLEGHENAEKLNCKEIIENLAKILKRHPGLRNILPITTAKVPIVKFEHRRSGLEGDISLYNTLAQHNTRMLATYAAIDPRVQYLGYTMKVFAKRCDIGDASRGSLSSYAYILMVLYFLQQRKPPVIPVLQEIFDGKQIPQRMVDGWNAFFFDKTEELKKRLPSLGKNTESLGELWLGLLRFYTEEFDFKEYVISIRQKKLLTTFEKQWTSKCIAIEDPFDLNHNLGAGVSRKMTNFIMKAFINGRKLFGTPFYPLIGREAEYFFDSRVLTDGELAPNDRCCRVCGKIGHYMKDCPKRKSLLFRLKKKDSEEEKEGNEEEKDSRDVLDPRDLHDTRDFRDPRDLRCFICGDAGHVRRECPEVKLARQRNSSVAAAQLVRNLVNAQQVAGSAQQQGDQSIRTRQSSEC
Type: biochemical
How it was run: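 Potency is measured as inhibition of LIN28A-driven U-tail addition to 2 nM pre-let-7 by 0.2 nM HEK293-derived Zcchc11 fragment with 5 uM UTP at room temperature. Tail growth appears as fluorescein quenching by an annealing rhodamine-A20 probe.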
`O=C(O)c1cn(-c2cnccn2)c2cc(N3C[C@@H](F)C[C@H]3COc3ncccc3Cl)c(Cl)cc2c1=O` [Example 519, 6-chloro-7-((2S,4S)-2-(((3-chloropyridin-2-yl)oxy)methyl)-4-fluoropyrrolidin-1-yl)-4-oxo-1-(pyrazin-2-yl)-1,4-dihydroquinoline-3-carboxylic acid] was tested, and the IC50 was at most 1 µM.
Work on `CN1CC2(C1)CN(c1ccc(-n3cc(C(=O)O)c(=O)c4cc(Cl)c(N5CCC[C@@H]5COc5ncccc5Cl)cc43)cn1)C2` [Example 520, (R)-6-chloro-7-(2-(((3-chloropyridin-2-yl)oxy)methyl)pyrrolidin-1-yl)-1-(6-(6-methyl-2,6-diazaspiro[3.3]heptan-2-yl)pyridin-3-yl)-4-oxo-1,4-dihydroquinoline-3-carboxylic acid] yielded an IC50 of at most 1 µM.
`CN(C)[C@H]1CCN(c2ccc(-n3cc(C(=O)O)c(=O)c4cc(Cl)c(N5CCC[C@@H]5COc5ncccc5Cl)cc43)cn2)C1` [Example 521, 6-chloro-7-((R)-2-(((3-chloropyridin-2-yl)oxy)methyl)pyrrolidin-1-yl)-1-(6-((S)-3-(dimethylamino)pyrrolidin-1-yl)pyridin-3-yl)-4-oxo-1,4-dihydroquinoline-3-carboxylic acid] showed an IC50 of at most 1 µM.
With `CN(C)[C@@H]1CCN(c2ccc(-n3cc(C(=O)O)c(=O)c4cc(Cl)c(N5CCC[C@@H]5COc5ncccc5Cl)cc43)cn2)C1` [Example 522, 6-chloro-7-((R)-2-(((3-chloropyridin-2-yl)oxy)methyl)pyrrolidin-1-yl)-1-(6-((R)-3-(dimethylamino)pyrrolidin-1-yl)pyridin-3-yl)-4-oxo-1,4-dihydroquinoline-3-carboxylic acid] the IC50 was at most 1 µM.
Compound `CN1CC2CN(c3ccc(-n4cc(C(=O)O)c(=O)c5cc(Cl)c(N6CCC[C@@H]6COc6ncccc6Cl)cc54)cn3)CC2C1` (stereo partly drawn) [Example 523, 6-chloro-7-((R)-2-(((3-chloropyridin-2-yl)oxy)methyl)pyrrolidin-1-yl)-1-(6-(5-methylhexahydro-pyrrolo[3,4-c]pyrrol-2(1H)-yl)pyridin-3-yl)-4-oxo-1,4-dihydroquinoline-3-carboxylic acid] has an IC50 of at most 1 µM.
`COc1cc2c(=O)c(C(=O)O)cn(-c3ccc(N4CC(N(C)C)C4)nc3)c2cc1N1CCC[C@@H]1COc1ncccc1Cl` [Example 524, (R)-7-(2-(((3-chloropyridin-2-yl)oxy)methyl)pyrrolidin-1-yl)-1-(6-(3-(dimethylamino)azetidin-1-yl)pyridin-3-yl)-6-methoxy-4-oxo-1,4-dihydroquinoline-3-carboxylic acid] was tested, and the IC50 was 1 to 10 µM.
`O=C(O)c1cn(-c2ccc(N3CCCC3=O)nc2)c2nc(N3CCC[C@@H]3COc3ncccc3Cl)c(Cl)cc2c1=O` [Example 525, (R)-6-chloro-7-(2-(((3-chloropyridin-2-yl)oxy)methyl)pyrrolidin-1-yl)-4-oxo-1-(6-(2-oxopyrrolidin-1-yl)pyridin-3-yl)-1,4-dihydro-1,8-naphthyridine-3-carboxylic acid] was tested, and the IC50 was at most 1 µM.
`CN(C)C1CN(c2ccc(-n3cc(C(=O)O)c(=O)c4cc(Cl)c(N5CCC[C@@H]5COc5ncccc5F)cc43)cn2)C1` [Example 526, (R)-6-chloro-1-(6-(3-(dimethylamino)azetidin-1-yl)pyridin-3-yl)-7-(2-(((3-fluoropyridin-2-yl)oxy)methyl)pyrrolidin-1-yl)-4-oxo-1,4-dihydroquinoline-3-carboxylic acid] was tested, and the IC50 was at most 1 µM.
In the case of `O=C(O)c1cn(-c2ccc(N3CC4CNCC4C3)nc2)c2cc(N3CCC[C@@H]3COc3ncccc3Cl)c(Cl)cc2c1=O` (stereo partly drawn) [Example 527, 6-chloro-7-((R)-2-(((3-chloropyridin-2-yl)oxy)methyl)pyrrolidin-1-yl)-1-(6-(hexahydro-pyrrolo[3,4-c]pyrrol-2(1H)-yl)pyridin-3-yl)-4-oxo-1,4-dihydroquinoline-3-carboxylic acid acid], the IC50 is reported as at most 1 µM.
With `Cc1cc2c(=O)c(C(=O)O)cn(-c3ccc(N4CC(N(C)C)C4)nc3)c2cc1N1CCC[C@@H]1COc1ncccc1F` [Example 528, (R)-1-(6-(3-(dimethylamino)azetidin-1-yl)pyridin-3-yl)-7-(2-(((3-fluoropyridin-2-yl)oxy)methyl)pyrrolidin-1-yl)-6-methyl-4-oxo-1,4-dihydroquinoline-3-carboxylic acid] the IC50 was at most 1 µM.
Work on `O=C(O)c1cn(-c2cnc3cc[nH]c3n2)c2cc(N3CCC[C@@H]3COc3ncccc3Cl)c(Cl)cc2c1=O` [Example 530, (R)-6-chloro-7-(2-(((3-chloropyridin-2-yl)oxy)methyl)pyrrolidin-1-yl)-4-oxo-1-(5H-pyrrolo[2,3-b]pyrazin-3-yl)-1,4-dihydroquinoline-3-carboxylic acid] yielded an IC50 of at most 1 µM.
With `O=C(O)c1cn(-c2ccc(N3CCC3=O)nc2)c2nc(N3CCC[C@@H]3COc3ncccc3Cl)c(Cl)cc2c1=O` [Example 531, (R)-6-chloro-7-(2-(((3-chloropyridin-2-yl)oxy)methyl)pyrrolidin-1-yl)-4-oxo-1-(6-(2-oxoazetidin-1-yl)pyridin-3-yl)-1,4-dihydro-1,8-naphthyridine-3-carboxylic acid] the IC50 was at most 1 µM.
With `CN(C)C1CN(c2ccc(-n3cc(C(=O)O)c(=O)c4cc(Cl)c(N5CCC[C@@H]5COc5ncccc5Cl)nc43)cn2)C1` [Example 532, (R)-6-chloro-7-(2-(((3-chloropyridin-2-yl)oxy)methyl)pyrrolidin-1-yl)-1-(6-(3-(dimethylamino)azetidin-1-yl)pyridin-3-yl)-4-oxo-1,4-dihydro-1,8-naphthyridine-3-carboxylic acid] the IC50 was at most 1 µM.
Work on `Cc1cc2c(=O)c(C(=O)O)cn(-c3ccc(N4CC(N(C)C)C4)nc3)c2cc1N1CCC[C@@H]1COc1ncccc1Cl` [Example 533, (R)-7-(2-(((3-chloropyridin-2-yl)oxy)methyl)pyrrolidin-1-yl)-1-(6-(3-(dimethylamino)azetidin-1-yl)pyridin-3-yl)-6-methyl-4-oxo-1,4-dihydroquinoline-3-carboxylic acid] yielded an IC50 of at most 1 µM.
For `O=C(O)c1cn(-c2ccc(F)c(O)c2)c2cc(N3CCC[C@@H]3COc3ccccn3)c(F)cc2c1=O` [Example 534, (R)-6-fluoro-1-(4-fluoro-3-hydroxyphenyl)-4-oxo-7-(2-((pyridin-2-yloxy)methyl)pyrrolidin-1-yl)-1,4-dihydroquinoline-3-carboxylic acid], the IC50 was at most 1 µM.
With `O=C(O)c1cn(C2CCn3ccnc3C2)c2cc(N3CCC[C@@H]3COc3ncccc3Cl)c(Br)cc2c1=O` (stereo partly drawn) [Example 536, 6-bromo-7-((R)-2-(((3-chloropyridin-2-yl)oxy)methyl)pyrrolidin-1-yl)-4-oxo-1-(5,6,7,8-tetrahydroimidazo [1,2-a]pyridin-7-yl)-1,4-dihydroquinoline-3-carboxylic acid] the IC50 was at most 1 µM.
`CN(C)C1CN(c2ccc(-n3cc(C(=O)O)c(=O)c4cc(Br)c(N5CCC[C@@H]5COc5ncccc5Cl)cc43)cn2)C1` [Example 537, (R)-6-bromo-7-(2-(((3-chloropyridin-2-yl)oxy)methyl)pyrrolidin-1-yl)-1-(6-(3-(dimethylamino)azetidin-1-yl)pyridin-3-yl)-4-oxo-1,4-dihydroquinoline-3-carboxylic acid] showed an IC50 of at most 1 µM.
In the case of `N#Cc1cc2c(=O)c(C(=O)O)cn(-c3cnccn3)c2cc1N1CCC[C@@H]1COc1ncccc1Cl` [Example 538, (R)-7-(2-(((3-chloropyridin-2-yl)oxy)methyl)pyrrolidin-1-yl)-6-cyano-4-oxo-1-(pyrazin-2-yl)-1,4-dihydroquinoline-3-carboxylic acid], the IC50 is reported as at most 1 µM.
Compound `COCCNc1ccc(-n2cc(C(=O)O)c(=O)c3cc(C#N)c(N4CCC[C@@H]4COc4ncccc4Cl)cc32)cn1` [Example 539, (R)-7-(2-(((3-chloropyridin-2-yl)oxy)methyl)pyrrolidin-1-yl)-6-cyano-1-(6-((2-methoxyethyl)amino)pyridin-3-yl)-4-oxo-1,4-dihydroquinoline-3-carboxylic acid] has an IC50 of at most 1 µM.

— US12662491B2 (Redona Therapeutics, Inc., priority 2020, dated 2026)
